Reference: patent US20180153872A1, “HETEROARYL CARBONITRILES FOR THE TREATMENT OF DISEASE” (OPKO Health, Inc., priority 2015, published 2018)
Where “and” joins values, the source holds several entries; their conditions need not be identical. Equal values may be shown once.

Columns and labels:
[1] = Plasma concentration after oral dose in dogs; type: in vivo; settings: dog, 0.3 mg/kg oral
Method: (§1) The antitussive activity of SCH 900978 was also evaluated against cough induced by mechanical stimulation of the intrathoracic trachea in anesthetized dogs. Cough was measured in each stimulation trial by the cough frequency (number of coughs) and cough amplitude (cm H2O increase in expiratory pressure). […] Plasma concentration of SCH900978 at 2, 6 and 25 hours after administration of the 0.3 mg/kg dose to dogs were 201, 151 and 102 ng/mL (373, 280 and 189 nM), respectively.

NK1 receptors [2] = molecular target: NK1 receptors (Mus musculus, UniProt P30548); test: NK1 receptor radioligand binding, mouse; settings: no unit, Ki in nM
Sequence of NK1 receptors (Mus musculus, UniProt P30548) (P30548 whole entry): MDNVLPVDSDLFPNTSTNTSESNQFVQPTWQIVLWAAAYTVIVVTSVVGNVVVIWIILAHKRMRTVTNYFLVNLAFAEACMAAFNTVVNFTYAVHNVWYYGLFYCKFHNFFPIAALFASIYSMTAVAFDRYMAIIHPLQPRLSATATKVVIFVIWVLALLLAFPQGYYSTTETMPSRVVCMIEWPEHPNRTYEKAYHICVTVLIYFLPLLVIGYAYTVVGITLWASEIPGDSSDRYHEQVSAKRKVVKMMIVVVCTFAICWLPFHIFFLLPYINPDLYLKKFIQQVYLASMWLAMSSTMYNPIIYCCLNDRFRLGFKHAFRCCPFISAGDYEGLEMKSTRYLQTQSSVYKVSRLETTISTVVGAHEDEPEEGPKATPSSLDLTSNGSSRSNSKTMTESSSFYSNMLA
Method: (§2) SCH900978 was also tested for NK2 and NK3 receptor activity and in 106 other receptors, transporters, enzymes and ion channels and had greater than 1000 fold lower affinity for these than for the NK1 receptor.

NK1 receptors [3] = molecular target: NK1 receptors (Rattus norvegicus, UniProt P14600); test: NK1 receptor radioligand binding, rat; settings: no unit, Ki in nM
Sequence of NK1 receptors (Rattus norvegicus, UniProt P14600) (P14600 whole entry): as the sequence (P30548 whole entry) above, with V7M, T15I, I266V, D367E counted along it
Method: as §2

[4] = Metabolic pathways in the mammals tested; type: in vivo
Source text: (§3) Urinary excretion was also substantial (approximately 20%).

[5] = Pharmacokinetics/toxicokinetics and excretion in monkeys; type: in vivo, monkey; settings: for plasma concentration-time profile: single oral dose
Source text: as §3

capsaicin-induced cough = test: Capsaicin-induced cough in conscious guinea pigs; type: in vivo; settings: guinea pig
Method: Inhalation of the irritant capsaicin induces coughing in both animals and humans, in part by releasing substance P from unmyelinated sensory C fibers in the lung. When administered orally to conscious guinea pigs six hours prior to inhalation of aerosolized capsaicin, SCH900978 attenuated capsaicin-induced cough in a dose-dependent manner (ED90=0.04 mg/kg) (FIG. 2).

[6] = test system: cough induced by mechanical stimulation of the intrathoracic trachea; test: Mechanically induced cough in anesthetized dogs; type: in vivo; settings: anesthetized dog, 0.3 mg/kg oral
Method: as §1

NK1 receptor [7] = molecular target: NK1 receptor (Homo sapiens, UniProt P25103); test: Block of GR-73632-mediated calcium efflux in cells expressing the human NK1 receptor (Schild analysis); type: cell-based; settings: GR-73632-stimulated calcium efflux, read-out: Kb, equilibrium dissociation constant determined by Schild analysis
Sequence of NK1 receptor (Homo sapiens, UniProt P25103) (P25103 whole entry): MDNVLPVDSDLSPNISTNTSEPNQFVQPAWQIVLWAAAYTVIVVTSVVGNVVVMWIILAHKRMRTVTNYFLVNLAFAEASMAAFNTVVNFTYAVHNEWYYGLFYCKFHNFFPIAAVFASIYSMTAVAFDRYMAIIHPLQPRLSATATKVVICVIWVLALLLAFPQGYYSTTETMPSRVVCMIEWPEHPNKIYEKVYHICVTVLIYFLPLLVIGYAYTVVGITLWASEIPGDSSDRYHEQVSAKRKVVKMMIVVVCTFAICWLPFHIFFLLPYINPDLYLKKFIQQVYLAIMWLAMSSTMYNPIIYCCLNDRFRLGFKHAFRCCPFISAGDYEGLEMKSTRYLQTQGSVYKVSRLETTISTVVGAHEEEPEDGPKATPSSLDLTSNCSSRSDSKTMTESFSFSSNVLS
Source text: (§4) A compound of formula I (also designated SCH 900978) is a potent, selective, competitive neurokinin-1 (NK-1) receptor antagonist that is effective as an oral administered drug for the treatment of cough and meets this unmet medical need. In addition, this drug is effective for the treatment of overactive bladder (OAB) and other selected indications including major depression and alcohol dependency. […] The present invention comprises a compound of formula I having an effective dose for 90% inhibition [ED90]=0.2 mg/kg as determined in an in vivo pharmacodynamic model of NK1 receptor activity (gerbil foot thumping).
as §2

[8] = Brain penetration, gerbils; type: in vivo, gerbil
Method: as §3
(§5) The extent of brain penetration by SCH 900978 was evaluated after oral administration of SCH 900978 amorphous hydrochloride to female gerbils (0.1 mg/kg), male Sprague Dawley rats (5 mg/kg), and male guinea pigs (0.3 mg/kg).

[9] = test system: 106 other receptors, transporters, enzymes and ion channels; test: Panel of 106 other receptors, transporters, enzymes and ion channels; type: binding
Method: as §2

[10] = Brain penetration, guinea pigs; type: in vivo, guinea pig
Method: as §3, §5

[11] = Pharmacokinetics/toxicokinetics and excretion in rats; type: in vivo, rat; settings: for plasma concentration-time profile: single oral dose
Source text: as §3

Plasma protein binding = type: in vitro ADME; settings: all mammals tested and human
Source text: as §3

in vivo = test: in vivo
Method: A series of in vitro and in vivo studies examined the effects of SCH900978 on cardiovascular, respiratory and CNS functions. No adverse effects were observed. The NOAEL was ≥25 mg/kg in male rats, ≥12.5 mg/kg in female rats and ≥10 mg/kg in male cynomolgus monkeys; each dose was the highest dose tested.

NK1 receptor [12] = molecular target: T1, NK1 receptor (Canis lupus familiaris, UniProt Q5DUB3); test: Substance P-elicited blood pressure and minute volume changes in dogs; type: in vivo; settings: dog, 0.3 mg/kg oral
T1 construct: from tissue; host or cells: living dog
T1 sequence (Q5DUB3 whole entry): as the sequence (P25103 whole entry) above, with P6Q, S12F, S176N, K280E, I358V, P369L, A375T, C386G, S402Y, V405M counted along it

NK3 receptor = molecular target: T2, NK3 receptor (Homo sapiens, UniProt P29371); test: NK3 receptor affinity; type: binding
T2 sequence (P29371 1-465): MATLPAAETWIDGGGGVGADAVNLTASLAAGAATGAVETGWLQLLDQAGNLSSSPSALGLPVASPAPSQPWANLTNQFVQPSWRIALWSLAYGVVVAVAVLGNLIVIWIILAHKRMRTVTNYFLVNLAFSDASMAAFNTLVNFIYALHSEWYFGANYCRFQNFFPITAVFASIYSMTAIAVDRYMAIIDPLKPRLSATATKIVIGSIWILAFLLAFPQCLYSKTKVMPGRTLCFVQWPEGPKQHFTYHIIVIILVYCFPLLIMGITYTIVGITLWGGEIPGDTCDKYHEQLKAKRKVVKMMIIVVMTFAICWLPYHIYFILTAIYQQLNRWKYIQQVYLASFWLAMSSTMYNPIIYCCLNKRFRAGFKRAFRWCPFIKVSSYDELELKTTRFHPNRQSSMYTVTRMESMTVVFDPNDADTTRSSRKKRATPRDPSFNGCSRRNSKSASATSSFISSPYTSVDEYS
Source text: as §4, §2

**Q.** For C[C@@H](OC[C@@]1(c2ccccc2)CC[C@](C#N)(n2cn[nH]c2=O)CN1)c1cc(C(F)(F)F)cc(C(F)(F)F)c1 [Compound 42, (3 S,6S)-6-({(1R)-1-[3,5-bis(trifluoromethyl)phenyl]ethoxy}methyl)-3-(5-oxo-1,5dihydro-4H-1,2,4-triazol-4-yl)-6-phenylpiperidine-3-carbonitrile], which concentration at 2 h ([1]; 2 hours) is on record?
**A.** 201 ng/mL and 373 nM

**Q.** And the concentration at 6 h ([1]; 6 hours)?
**A.** 151 ng/mL and 280 nM

**Q.** What about the concentration at 25 h ([1]; 25 hours) of the same compound?
**A.** 102 ng/mL and 189 nM

**Q.** What about the Ki (NK1 receptors [2]) of the same compound?
**A.** 0.76 nM

**Q.** What about the Ki (NK1 receptors [3]) of the same compound?
**A.** 4.62 nM

**Q.** What about the major metabolic pathways [4] of the same compound?
**A.** oxidation and glucuronidation

**Q.** What about the “exposure, effect of sex” value ([5]; monkeys) of the same compound?
**A.** independent of sex

**Q.** And the “systemic exposure versus dose, single dose” value ([5]; monkeys)?
**A.** increased with increasing dose

**Q.** What about the “plasma concentrations over 24 hours after 29th dose versus first dose” value ([5]; monkeys 0.5 to 30 mg/kg) of the same compound?
**A.** greater

**Q.** And the exposure versus dose ([5]; monkeys, once daily oral doses for one month)?
**A.** generally increased as the dose increased

**Q.** And the major elimination pathway ([5]; monkeys, oral administration)?
**A.** excretion into the feces

**Q.** What about the plasma concentration-time profile ([5]; monkeys, listed as SCH 900978) of the same compound?
**A.** extended absorption of SCH900978 with a long t1/2

**Q.** And the plasma concentration-time profile ([5]; monkeys, listed as SCH900978)?
**A.** extended absorption of the drug and a long apparent terminal elimination phase half-life

**Q.** And the “maximal inhibition of capsaicin-induced cough” value (capsaicin-induced cough)?
**A.** comparable to that produced by the standard antitussive agents

**Q.** And the “ED90, capsaicin-induced cough” value (capsaicin-induced cough; oral, six hours prior to aerosolized capsaicin)?
**A.** 0.04 mg/kg

**Q.** What about the “duration of significantly reduced cough amplitude” value [6] of the same compound?
**A.** up to 24 hours

**Q.** What about the “duration of significantly reduced cough frequency” value [6] of the same compound?
**A.** up to 24 hours

**Q.** What about the Kb (NK1 receptor [7]) of the same compound?
**A.** 0.17 nM

**Q.** And the “crossing of the blood brain barrier” value [8]?
**A.** readily crossed the blood brain barrier

**Q.** What about the “affinity for a battery of other receptors, transporters, enzymes or ion channels” value [9] of the same compound?
**A.** does not have significant affinity

**Q.** What about the “fold lower affinity than for the NK1 receptor” value ([9]; 106 other receptors, transporters, enzymes and ion channels vs NK1) of the same compound?
**A.** greater than 1000 fold

**Q.** And the “crossing of the blood brain barrier” value [10]?
**A.** readily crossed the blood brain barrier

**Q.** What about the “systemic exposure after repeated administration” value ([11]; female and male rats, doses >=25 mg/kg, most likely CYP enzyme induction) of the same compound?
**A.** decreased following repeated administration

**Q.** And the “plasma concentrations over 24 hours after 29th dose versus first dose” value ([11]; female rats 0.5 to 12.5 mg/kg, male rats 1 to 5 mg/kg)?
**A.** greater

**Q.** And the “systemic exposure (AUC) versus dose, single dose” value ([11]; male rats 0.6 to 500 mg/kg, female rats 0.5 to 250 mg/kg, no further increase at the highest doses)?
**A.** increased with increasing dose

**Q.** And the “exposure, effect of sex” value ([11]; rats)?
**A.** higher in female rats than in male rats

**Q.** What about the exposure versus dose ([11]; rats, once daily oral doses for one month) of the same compound?
**A.** generally increased as the dose increased

**Q.** What about the major elimination pathway ([11]; rats, oral administration) of the same compound?
**A.** excretion into the feces

**Q.** And the plasma concentration-time profile ([11]; rats, listed as SCH 900978)?
**A.** extended absorption of SCH900978 with a long t1/2

**Q.** And the plasma concentration-time profile ([11]; rats, listed as SCH900978)?
**A.** extended absorption of the drug and a long apparent terminal elimination phase half-life

**Q.** And the protein bound (Plasma protein binding)?
**A.** ≥ 99.6%

**Q.** And the NOAEL (in vivo; female, rat)?
**A.** ≥ 12.5 mg/kg

**Q.** And the NOAEL (in vivo; male, cynomolgus monkey)?
**A.** ≥ 10 mg/kg

**Q.** And the NOAEL (in vivo; male, rat)?
**A.** ≥ 25 mg/kg

**Q.** And the “inhibition of substance P-elicited increase in minute volume” value (NK1 receptor [12])?
**A.** maximally inhibited

**Q.** What about the “inhibition of substance P-elicited reduction in blood pressure” value (NK1 receptor [12]) of the same compound?
**A.** maximally inhibited

**Q.** What about the Ki (NK3 receptor) of the same compound?
**A.** > 1000 nM

**Q.** What about the “fold lower affinity than for the NK1 receptor” value (NK3 receptor; NK3 vs NK1) of the same compound?
**A.** greater than 1000 fold
